Results published in patent US20100249076A1, “PRODRUGS OF 9-AMINOMETHYL TETRACYCLINE COMPOUNDS” (priority 2003, published 2010).
Read-outs that look alike come from different tables or passages of the source.

How the values were obtained:
Assay type in all cases: in vivo
S. pneumoniae 700905 = assay: Oral efficacy (PD50) in mice with acute systemic infection by resistant S. pneumoniae; conditions: Streptococcus pneumoniae, resistant S. pneumoniae 700905
Procedure: (§1) Relative to linezolid, the PD50 values for a number of the compounds were within an 2-fold range against the resistant organism. Compounds with PD50 values of less than 7 mg/kg/dose are indicated with “***.” Compounds with PD50 values of less than 14 mg/kg/dose but greater than 7 mg/kg/dose are indicated with “**.” Compounds with PD50 values of greater than 14 mg/kg/dose, but less than 21 mg/kg/dose are indicated with “*.” Compounds with PD50 values greater than 21 mg/kg/dose are indicated with “−”

S. pneumoniae 157E = assay: Oral efficacy (PD50) in mice with acute systemic infection by susceptible S. pneumoniae; conditions: Streptococcus pneumoniae, read-out: PD50, S. pneumoniae 157E
Procedure: as §1

[1] = system: S. pneumoniae 157E (tet^S); assay: Oral efficacy screen, murine model of S. pneumoniae systemic infection (survival); conditions: Streptococcus pneumoniae, 1 h, read-out: % survival at 10 (po) mg/kg
Procedure: The following example was used to assess the oral bioavailability of compounds of the invention in an oral efficacy screen in murine models of infection. The compounds were screened by administering a single 10 mg/kg oral dose to mice 1 hour after administration of a lethal intraperitoneal inoculum of S. pneumoniae 157E (tet^S).
In Table 1 below, compounds with a survival rate of ≧80% are indicated with ‘***”; compounds with a survival rate of ≧60% are indicated with ‘**” and compounds with a survival rate of […] are indicated with ‘*’. Compounds with a survival rate of less than 20% are indicated with ‘−’.

[2] = mice, oral, acute systemic infection, susceptible S. pneumoniae 157E

Structure (SMILES) | ED50 (S. pneumoniae 700905) [mg/kg] | ED50 (S. pneumoniae 157E; 157E, po) [mg/kg] | responders at 10 mg/kg [1] [%] | ED50 (S. pneumoniae 157E; [2]) [mg/kg]
CN(C)c1cc(CN(CC(C)(C)C)C(=O)OCOC(=O)C(C)(C)C)c(O)c2c1C[C@H]1C[C@H]3[C@H](N(C)C)C(O)=C(C(N)=O)C(=O)[C@@]3(O)C(O)=C1C2=O [A] | < 7 | < 7 | > 80 | –
CC1(C)S[C@@H]2[C@H](NC(=O)[C@H](N)c3ccccc3)C(=O)N2[C@H]1C(=O)O [Ampicillin, reference compound] | – | – | – | 14 to 21
CC[C@H]1OC(=O)[C@H](C)[C@@H](O[C@H]2C[C@@](C)(OC)[C@@H](O)[C@H](C)O2)[C@H](C)[C@@H](O[C@@H]2O[C@H](C)C[C@H](N(C)C)[C@H]2O)[C@](C)(O)C[C@@H](C)CN(C)[C@H](C)[C@@H](O)[C@]1(C)O [Azithromycin, reference compound] | – | – | – | 7 to 14
CC(=O)OCOC(=O)N(Cc1cc(N(C)C)c2c(c1O)C(=O)C1=C(O)[C@]3(O)C(=O)C(C(N)=O)=C(O)[C@@H](N(C)C)[C@@H]3C[C@@H]1C2)CC(C)(C)C [B] | 7 to 14 | 7 to 14 | > 80 | –
CN(C)c1cc(CN(CC(C)(C)C)C(=O)OCOC(=O)c2ccccc2)c(O)c2c1C[C@H]1C[C@H]3[C@H](N(C)C)C(O)=C(C(N)=O)C(=O)[C@@]3(O)C(O)=C1C2=O [D] | – | < 7 | > 0 | –
C[C@H]1c2cccc(O)c2C(=O)C2=C(O)[C@]3(O)C(=O)C(C(N)=O)=C(O)[C@@H](N(C)C)[C@@H]3[C@@H](O)[C@@H]21 [Doxycycline, reference compound] | – | – | – | < 7
CN(C)c1cc(CN(CC(C)(C)C)C(=O)OCOC(=O)CCc2ccccc2)c(O)c2c1C[C@H]1C[C@H]3[C@H](N(C)C)C(O)=C(C(N)=O)C(=O)[C@@]3(O)C(O)=C1C2=O [E] | – | – | > 0 | –
CN(C)c1cc(CN(CC(C)(C)C)C(=O)OCOC(=O)C2CCCCC2)c(O)c2c1C[C@H]1C[C@H]3[C@H](N(C)C)C(O)=C(C(N)=O)C(=O)[C@@]3(O)C(O)=C1C2=O [F] | 14 to 21 | < 7 | > 60 | –
COc1ccc(C(=O)OCOC(=O)N(Cc2cc(N(C)C)c3c(c2O)C(=O)C2=C(O)[C@]4(O)C(=O)C(C(N)=O)=C(O)[C@@H](N(C)C)[C@@H]4C[C@@H]2C3)CC(C)(C)C)cc1 [G] | – | 7 to 14 | > 60 | –
CN(C)c1cc(CN(CC(C)(C)C)C(=O)OCOC(=O)CC(C)(C)C)c(O)c2c1C[C@H]1C[C@H]3[C@H](N(C)C)C(O)=C(C(N)=O)C(=O)[C@@]3(O)C(O)=C1C2=O [H] | 7 to 14 | < 7 | > 80 | –
CC(OC(=O)N(Cc1cc(N(C)C)c2c(c1O)C(=O)C1=C(O)[C@]3(O)C(=O)C(C(N)=O)=C(O)[C@@H](N(C)C)[C@@H]3C[C@@H]1C2)CC(C)(C)C)OC(=O)C(C)(C)C (some centres unmarked) [I] | 7 to 14 | – | > 80 | –
COCC(=O)OCOC(=O)N(Cc1cc(N(C)C)c2c(c1O)C(=O)C1=C(O)[C@]3(O)C(=O)C(C(N)=O)=C(O)[C@@H](N(C)C)[C@@H]3C[C@@H]1C2)CC(C)(C)C [J] | – | – | > 0 | –
COCCC(=O)OCOC(=O)N(Cc1cc(N(C)C)c2c(c1O)C(=O)C1=C(O)[C@]3(O)C(=O)C(C(N)=O)=C(O)[C@@H](N(C)C)[C@@H]3C[C@@H]1C2)CC(C)(C)C [K] | 14 to 21 | < 7 | > 80 | –
COCCOCC(=O)OCOC(=O)N(Cc1cc(N(C)C)c2c(c1O)C(=O)C1=C(O)[C@]3(O)C(=O)C(C(C)=O)=C(O)[C@@H](N(C)C)[C@@H]3C[C@@H]1C2)CC(C)(C)C [L] | – | – | > 60 | –
CC(=O)NC[C@H]1CN(c2ccc(N3CCOCC3)c(F)c2)C(=O)O1 [Linezolid, reference compound] | 7 to 14 | – | – | < 7
CN(C)c1cc(CN(CC(C)(C)C)C(=O)OCOC(=O)c2ccc(C(F)(F)F)cc2)c(O)c2c1C[C@H]1C[C@H]3[C@H](N(C)C)C(O)=C(C(N)=O)C(=O)[C@@]3(O)C(O)=C1C2=O [M] | – | – | > 80 | –
CN(C)c1ccc(O)c2c1C[C@H]1C[C@H]3[C@H](N(C)C)C(O)=C(C(N)=O)C(=O)[C@@]3(O)C(O)=C1C2=O [Minocycline, reference compound] | – | – | – | 7 to 14
CN(C)c1cc(CN(CC(C)(C)C)C(=O)OCOC(=O)c2c(F)cccc2F)c(O)c2c1C[C@H]1C[C@H]3[C@H](N(C)C)C(O)=C(C(N)=O)C(=O)[C@@]3(O)C(O)=C1C2=O [N] | 14 to 21 | – | > 80 | –
CN(C)c1cc(CN(CC(C)(C)C)C(=O)OCOC(=O)Cc2ccccc2)c(O)c2c1C[C@H]1C[C@H]3[C@H](N(C)C)C(O)=C(C(N)=O)C(=O)[C@@]3(O)C(O)=C1C2=O [O] | 7 to 14 | – | > 60 | –
CCC(=O)OCOC(=O)N(Cc1cc(N(C)C)c2c(c1O)C(=O)C1=C(O)[C@]3(O)C(=O)C(C(N)=O)=C(O)[C@@H](N(C)C)[C@@H]3C[C@@H]1C2)CC(C)(C)C [P] | 14 to 21 | – | > 80 | –
CCCC(=O)OCOC(=O)N(Cc1cc(N(C)C)c2c(c1O)C(=O)C1=C(O)[C@]3(O)C(=O)C(C(N)=O)=C(O)[C@@H](N(C)C)[C@@H]3C[C@@H]1C2)CC(C)(C)C [Q] | 14 to 21 | – | > 80 | –
CC(C)C(=O)OCOC(=O)N(Cc1cc(N(C)C)c2c(c1O)C(=O)C1=C(O)[C@]3(O)C(=O)C(C(N)=O)=C(O)[C@@H](N(C)C)[C@@H]3C[C@@H]1C2)CC(C)(C)C [R] | 7 to 14 | – | > 80 | –
